In patent US20230096137A1, “COMPOSITION FOR LITHOGRAPHY AND PATTERN FORMATION METHOD” (Mitsubishi Gas Chemical Company, Inc., priority 2020, published 2023):

Assay: Safe solvent solubility test of compound (PGMEA)
Type: physicochemical
Conditions: 23° C., ultrasonic 30 minutes, visual
Description: (1) Safe Solvent Solubility Test of Compound
The solubility of the compound in PGMEA was evaluated according to the following criteria using the amount dissolved in each solvent. The amount of dissolution was measured at 23° C. by precisely weighing the compound into a test tube, adding a target solvent so as to attain a predetermined concentration, applying ultrasonic waves for 30 minutes in an ultrasonic cleaner, and then visually observing the subsequent state of the fluid.
A: 5.0% by mass≤Amount of dissolution
B: 2.0% by mass≤Amount of dissolution<5.0% by mass
C: Amount of dissolution<2.0% by mass

Compound | Safety solvent solubility PGMEA
Oc1ccc2c3c(ccc2c1I)Oc1ccc2c(I)c(O)ccc2c1C3c1ccc(-c2ccccc2)cc1 [XBisN-3] | A (5.0% by mass≤Amount of dissolution)
CC(C)(COc1c(I)cc(N2CC=CC2)cc1I)COc1c(I)cc(N2CC=CC2)cc1I [BMI-1] | A (5.0% by mass≤Amount of dissolution)
Oc1ccc2c3c(ccc2c1)Oc1ccc2cc(O)ccc2c1C3c1cccc(I)c1 [XbisN-1] | B (2.0% by mass≤Amount of dissolution<5.0% by mass)
Oc1ccc2c3c(ccc2c1)Oc1ccc2cc(O)ccc2c1C3c1ccc(-c2ccccc2)cc1 [XBisN-C1, reference compound] | B (2.0% by mass≤Amount of dissolution<5.0% by mass)
Oc1ccc(-c2ccc(O)c(C(c3cc(-c4ccc(O)cc4)ccc3O)c3cc(I)cc(I)c3O)c2)cc1 [BisB-2] | A (5.0% by mass≤Amount of dissolution)
Cc1cc(C(c2ccc(I)cc2)c2cc(C)c(O)c(C)c2)cc(C)c1O [BisB-1] | A (5.0% by mass≤Amount of dissolution)
